The record followed here is patent publication US11881286B2, “CD8+ t cell based immunosuppressive tumor microenvironment detection method” (GENENTECH, INC., priority 2019, dated 2024).

Assay [1] concerns SMAD2/3. Briefly: p-SMAD2/3 Western blot assay in PHBF fibroblasts. It counts as cell-based, human. The settings on record: 30 min. The method, then:
PHBF cells were plated at 100,000 cells/well in a 24-well cell culture plate overnight, serum starved for 24 h and then cultured in serum-free DMEM with indicated concentration of […] with or without Galunisertib for 30 min. Cells were lysed in protein lysis buffer containing T-PER tissue protein extraction reagent (ThermoFisher, #78510), cOmplete™ Protease Inhibitor Cocktail (Sigma-Aldrich, #11697498001) and PhosSTOP™ phosphatase inhibitor cocktails (Sigma-Aldrich, #4906845001). Total protein was diluted and normalized to 0.5 μg/μL with 4×LDS Sample Buffer (ThermoFisher, #84788). 10 ug of total protein was loaded into each well of a NuPAGE 4-12% Bis-Tris Midi Gel (Invitrogen), followed by protein transfer from gel to the membrane using Trans-Blot Turbo (Bio-Rad). […] Briefly, the membrane was blocked for 1 h, incubated with Phospho-Smad2 antibodies overnight at 4° C. ([…], 1:200, Cell Signaling #3108, clone138D4), washed and incubated with secondary antibodies goat anti-rabbit. To analyse the total Smad2/3, the membrane was stripped and then incubated with Smad2/3 antibodies (1:1000, Cell Signaling #8685).
On the technique in general: Immunoblotting shows a protein as a band on a membrane.

The subject of assay [2] is SK-OV-3. The experiment in a line: Surface MHC-I (HLA-ABC) expression by flow cytometry, SK-OV-3. It counts as cell-based, human. To be noted: 96 h. The method, then:
SK-OV-3 and OVCA-420 (MHC-I^high), and OAW42 and PA-1 (MHC-I^low) ovarian cancer lines were cultured in complete culture media (RPMI-1640+10% FBS). The cells were plated at 12,500-100,000 cells/well in 6-well tissue culture plate and complete culture media. After 24 hours, the cells were starved overnight in DMEM high glucose medium without FBS. Next, the starving media was replaced with culture media only (DMEM+2% FBS), 10 ng/mL rhTGFβ1 (Cat #PHG9204, Thermo Fisher, CA), 10 ng/mL rhTGFβ1+10 μM Galunisertib (Cat #S2230, SelleckChem, TX) or 5 ng/mL recombinant IFNγ (Cat #554617, BD Biosciences, CA) for 96 h at 37° C. Cells were then stained and analysed by flow cytometry. The “percentage of untreated” was calculated using this formula: [Geo Mean Fluorescence Intensity (IFNγ-treated cells)/Geo Mean Fluorescence Intensity (untreated cells)]×100. In order to see if MHC-I expression can be regulated by methylation, two MHC-I^low lines OAW42 and PA-1 were plated at 250,000-500,000 cells/dish in 10-cm dish and serum starved as described above for TGFβ1 treatment. 10 μM and 1 μM 5-Aza-2′-deoxycytidine (5-Aza, Cat #A2385, Sigma-Aldrich) demethylating agent in culture media was used to treat OAW42 and PA-1, respectively, for 96 h prior to FACS analysis. Media was half-replenished with fresh 5-Aza 48 hours after treatment to keep concentration consistent. […]
(In general: Flow cytometry measures light scatter and fluorescence of single cells or particles in a stream.)

Assay [3] has as its system OVCA-420. The experiment in a line: Surface MHC-I (HLA-ABC) expression by flow cytometry, OVCA-420. The format is cell-based, human. The procedure:
SK-OV-3 and OVCA-420 (MHC-I^high), and OAW42 and PA-1 (MHC-I^low) ovarian cancer lines were cultured in complete culture media (RPMI-1640+10% FBS). The cells were plated at 12,500-100,000 cells/well in 6-well tissue culture plate and complete culture media. After 24 hours, the cells were starved overnight in DMEM high glucose medium without FBS. Next, the starving media was replaced with culture media only (DMEM+2% FBS), 10 ng/mL rhTGFβ1 (Cat #PHG9204, Thermo Fisher, CA), 10 ng/mL rhTGFβ1+10 μM Galunisertib (Cat #S2230, SelleckChem, TX) or 5 ng/mL recombinant IFNγ (Cat #554617, BD Biosciences, CA) for 96 h at 37° C. Cells were then stained and analysed by flow cytometry. The “percentage of untreated” was calculated using this formula: [Geo Mean Fluorescence Intensity (IFNγ-treated cells)/Geo Mean Fluorescence Intensity (untreated cells)]×100. In order to see if MHC-I expression can be regulated by methylation, two MHC-I^low lines OAW42 and PA-1 were plated at 250,000-500,000 cells/dish in 10-cm dish and serum starved as described above for TGFβ1 treatment. 10 μM and 1 μM 5-Aza-2′-deoxycytidine (5-Aza, Cat #A2385, Sigma-Aldrich) demethylating agent in culture media was used to treat OAW42 and PA-1, respectively, for 96 h prior to FACS analysis. Media was half-replenished with fresh 5-Aza 48 hours after treatment to keep concentration consistent.
Before staining, Fc receptors were blocked for 10 min at room temperature using FcR blocking reagent human (Cat #130-059-901, Miltenyi Biotec, CA). Cells were stained during the blocking step with the LIVE/DEAD™ Fixable Near-IR Dead Cell (Cat #L10119, Invitrogen, CA). Then, cells were incubated at room temperature for 15 min with anti-human HLA-ABC-PE (Cat #560168, BD Biosciences, CA) or isotype control mouse IgG1κ-PE (Cat #556650, BD Biosciences) antibodies, washed and samples were acquired on BD LSRFortessa™ flow cytometer.

For assay [4], the system named is primary human fibroblasts. Briefly: Proliferation assay (CellTiter-Glo) of primary human fibroblasts. It counts as cell-based. To be noted: ovary, bladder and colon fibroblasts, 72 h. The method, then:
(§1) The primary normal fibroblast PHBF (Bladder), CCD-18Co (Colon) and HOF (Ovary) were serum-starved overnight before treatment with media only (untreated), 10 ng/mL rhTGFβ1 or 10 ng/mL rhTGFβ1+10 μM Galunisertib for 24 hours and total RNA was extracted for RNA-seq analysis. To detect IL-6 protein in the supernatant, cells were treated for 48 hours with rhTGFβ1. After the 48 h, the supernatant was collected and analysed by Luminex using the Millipore kit. For the proliferation assay, PHBF, CCD-18Co, HOF were plated at 3,000 cells/well in a 96-well culture flat bottom plate for immunofluorescent assays (Corning, #3917) overnight. Cells were then cultured for 72 hours in DMEM high glucose+1% FBS with indicated concentration of TGFβ1 with or without Galunisertib. Next, CellTiter-Glo® reagents (Promega, G7570) were added to each well and luminescence signal was read with a microplate reader.
(In general: ATP-based viability assays read luminescence as a measure of living cells.)

For assay [5], the system named is primary human fibroblasts. The experiment in a line: RNA-seq transcriptional response of primary human fibroblasts. The settings on record: 10 ng/mL rhTGFβ1, 24 h. It counts as cell-based. The procedure: as §1
In assay [6] the test system is IL-6. Briefly: IL-6 protein in fibroblast supernatant by Luminex. It counts as cell-based, human. The settings on record: rhTGFβ1, 48 h. The procedure: as §1
Assay [7] concerns OAW42. Briefly: Surface MHC-I (HLA-ABC) expression by flow cytometry, OAW42. It counts as cell-based, human. To be noted: 96 h. The method, then: (§2) SK-OV-3 and OVCA-420 (MHC-I^high), and OAW42 and PA-1 (MHC-I^low) ovarian cancer lines were cultured in complete culture media (RPMI-1640+10% FBS). The cells were plated at 12,500-100,000 cells/well in 6-well tissue culture plate and complete culture media. After 24 hours, the cells were starved overnight in DMEM high glucose medium without FBS. Next, the starving media was replaced with culture media only (DMEM+2% FBS), 10 ng/mL rhTGFβ1 (Cat #PHG9204, Thermo Fisher, CA), 10 ng/mL rhTGFβ1+10 μM Galunisertib (Cat #S2230, SelleckChem, TX) or 5 ng/mL recombinant IFNγ (Cat #554617, BD Biosciences, CA) for 96 h at 37° C. Cells were then stained and analysed by flow cytometry. The “percentage of untreated” was calculated using this formula: [Geo Mean Fluorescence Intensity (IFNγ-treated cells)/Geo Mean Fluorescence Intensity (untreated cells)]×100. […] Media was half-replenished with fresh 5-Aza 48 hours after treatment to keep concentration consistent. Before staining, Fc receptors were blocked for 10 min at room temperature using FcR blocking reagent human (Cat #130-059-901, Miltenyi Biotec, CA). Cells were stained during the blocking step with the LIVE/DEAD™ Fixable Near-IR Dead Cell (Cat #L10119, Invitrogen, CA). […]

Assay [8] has as its system PA-1. Briefly: Surface MHC-I (HLA-ABC) expression by flow cytometry, PA-1. The format is cell-based, human. To be noted: 96 h. The procedure: as §2

For `Cc1cccc(-c2nn3c(c2-c2ccnc4ccc(C(N)=O)cc24)CCC3)n1` [Galunisertib], the “TGFβ pathway (SMAD2/3 phosphorylation) with Galunisertib treatment” value in assay [1] (TGFβ1 with Galunisertib) is listed as “pathway inhibition”. Also, the “MHC class I expression in the presence of Galunisertib” value in assay [2] (SK-OV-3, 10 ng/mL rhTGFβ1+10 μM Galunisertib) is reported as “restored to the untreated level”; in assay [3] (OVCA-420, 10 ng/mL rhTGFβ1+10 μM Galunisertib, 96 h) it was “restored to the untreated level”.
For the molecule “TGFβ1: recombinant human TGFβ1 (rhTGFβ1, Cat #PHG9204, Thermo Fisher)”, the “proliferation of primary human fibroblasts” value in assay [4] was “promoted proliferation”. In addition, in assay [5], the “expression of immune-modulatory molecules (IL11, TNFAIP6) in fibroblast cells” value is “specifically induced” and the “mRNA expression of IL6 in human fibroblasts” value is listed as “specifically induced”. The “transcriptional program induced in human primary fibroblasts (ECM-related genes, reactive stroma markers)” value in assay [5] (ovary, bladder, colon fibroblasts) is recorded as “common 77-gene transcriptional program specifically induced”. Besides, the “phosphorylation level of SMAD2/3” value in assay [1] (TGFβ dose-dependent) is given as “increased”. In addition, in assay [6], the “IL-6 protein secretion level in the supernatant” value was “dramatically increased”. Moreover, the “decrease of surface expression of MHC-I compared to the untreated cells” value in assay [3] (OVCA-420, 10 ng/mL rhTGFβ1, 96 h, flow cytometry) is 40.45±14.2%.
On to `Nc1ncn([C@H]2C[C@H](O)[C@@H](CO)O2)c(=O)n1` [5-aza-2′-deoxycytidine], for which the “expression of MHC class I protein at the tumor cell surface” value is listed as “significantly induce” in assay [7] (OAW42, 10 μM 5-Aza, vs DMSO) and “significantly induce” in assay [8] (PA-1, 1 μM 5-Aza, vs DMSO).

B1: IFNγ: recombinant IFNγ, a cytokine well established for inducing MHC-I expression (protein, UniProt P01579 24-161, looked up)
Interferon gamma: QDPYVKEAENLKKYFNAGHSDVADNGTLFLGILKNWKEESDRKIMQSQIVSFYFKLFKNFKDDQSIQKSVETIKEDMNVKFFNSNKKKRDDFEKLTNYSVTDLNVQRKAIHELIQVMAELSPAAKTGKRKRSQMLFRG
Consider B1, for which the “MHC class I protein expression on the tumor cell surface” value in assay [7] (OAW42 (MHC-I low), 5 ng/mL IFNγ) is “increased”; in assay [2] (SK-OV-3 (MHC-I high), 5 ng/mL IFNγ), “increased”; in assay [3] (OVCA-420 (MHC-I high), 5 ng/mL IFNγ, 96 h), “increased”; in assay [8] (PA-1 (MHC-I low), 5 ng/mL IFNγ), “increased”.
